With `Cc1c(Br)cc(C(C)(C)C)c(O)c1C1=Nc2cc(Cl)ccc2S(=O)(=O)N1` [Example 1, 4-Bromo-6-tert-butyl-2-(6-chloro-1,1-dioxo-1,2-dihydro-1λ^6-benzo[1,2,4]thiadiazin-3-yl)-3-methylphenol] the melting point was 270 to 271 °C (dec.).

Reference: patent US8022066B2, “2-(2-hydroxyphenyl) benzothiadiazines useful for treating obesity and diabetes” (High Point Pharmaceuticals, LLC, priority 2006, dated 2011)
